Source: PMC10334471, “Tumor-targeted dual-action NSAID-platinum(IV) anticancer prodrugs” (Inorganic Chemistry Frontiers, 2023)

Legend:
albumin = molecular target: T1, albumin (Bos taurus, UniProt P02769); assay: Albumin binding in fetal calf serum by SEC-ICP-MS; type: in vitro ADME; conditions: 100 μM in FCS (150 mM phosphate buffer, pH 7.4), 37 °C, up to 6 h
T1 construct: Fetal calf serum was purchased from Sigma-Aldrich and buffered with 150 mM phosphate pH 7.4; tissue Sigma-Aldrich; host or cells: fetal calf serum
Protocol: Fetal calf serum was purchased from Sigma-Aldrich and buffered with 150 mM phosphate pH 7.4 in order to guarantee a stable pH. The platinum(IV) complexes (5 mM) were dissolved in 150 mM phosphate buffer (pH 7.4) and diluted 1 : 50 in the buffered serum to obtain a final concentration of 100 μM. The samples were then incubated in the autosampler at 37 °C and analyzed every 1 h for 6 h. Between each sample a pure water blank was measured. For SEC-ICP-MS measurements an Agilent 1260 Infinity system coupled to an Agilent 7800 ICP-MS equipped with a dynamic reaction cell was used. Oxygen (purity 5.5, Messer Austria GmbH, Gumpoldskirchen, Austria) was used as reaction gas.

HCT116/OxR = assay: MTT assay, 72 h, HCT116/OxR (oxaliplatin-resistant); type: cell-based; conditions: 72 h treatment, mean ± SD
Protocol: (§1) All cell cultures were grown at 37 °C in a humidified atmosphere containing 5% CO2. HCT116, RKO and HT-29 cells were cultured in McCoy's 5A Modified Media (Sigma-Aldrich, St. Louis, MO, USA) supplemented with 10% heat-inactivated fetal calf serum (FCS, PAA, Linz, Austria) and 2 mM glutamine (Sigma-Aldrich, St. Louis, MO, USA). The murine (Balb/c) colon cancer cell model CT26 (purchased from American Type Culture Collection, Manassas, VA, USA) were cultured in DMEM/F12 supplemented with 10% fetal calf serum (FCS). SW480 and Caco-2 cells were cultured in MEME media supplemented with 10% and 20% FCS, respectively. All cell culture media and reagents were purchased from Sigma-Aldrich Austria. […] The cells were regularly checked for Mycoplasma contamination.
(§2) Depending on their proliferation rate, cells were seeded at a density of 3500–5000 cells per well in 96-well microtiter plates and allowed to adhere overnight. […] Cell viability was determined using the 3-(4,5-dimethylthiazol-2-yl)-2,5-diphenyltetrazolium bromide (MTT) assay (EZ4U, Biomedia, Vienna, Austria) according to the manufacturer's recommendation. Depending on the metabolic capacity, the cell lines were incubated between one and three hours at 37 °C and subsequently absorbance was measured at 450 nm (620 nm as a reference) with a Tecan Reader infinite® M200Pro (Tecan Group Ltd, Switzerland). Data were analyzed using Graph Pad prism (version 8.0.1) by using the point-to-point function. […] Following, dose–response curves were calculated using the point-to-point function.

CT26 allografts [1] = assay: Oral anticancer activity in CT26 allografts; type: in vivo, Balb/c mice; conditions: OxAsaOAc 52.8 mg kg^−1 p.o., five subsequent days over two weeks
Protocol: It is well known that COX-2 is involved in the paracrine signaling between immune cells, resulting in a pro-tumorigenic tumor microenvironment.[10,33] Consequently, we got interested in the impact of the Asa ligand on the anticancer activity of the drugs in vivo. […] As Asa is clinically applied p.o., we tested the efficacy of OxAsaOAc and asplatin in an oral application setting. […] For the therapy experiment, the animals were treated with OxAsaOAc and asplatin for five subsequent days over two weeks.
(§3) All experiments were executed according to the regulation of the Ethics Committee for the Care and Use of Laboratory Animals at the Medical University Vienna. 8–12 weeks old BALB/c were kept in a pathogen-free environment with a 12 h light dark-cycle with ad libitum access to food and water. Every procedure was performed in a laminar airflow under sterile condition. Tumor growth and possible side effects of drug treatment were evaluated by daily recording the tumor size by caliper measurement according to the formula length × width^2/2 and parameters of the animal's overall health conditions.

[2] = Released salicylic acid in serum of mice after single i.v. administration (UHPLC-MS); conditions: for Free salicylic acid in serum, share of administered dose: tumor-free Balb/c mice
Protocol: After 10 min, 1 h and 24 h blood was collected via the facial vein. Serum was isolated by centrifugation at 900 g for 10 min for two times and stored at −80 °C. Platinum content was detected by ICP-MS measurements, using an Agilent 7800 (Agilent Technologies, Tokyo, Japan) equipped with an Agilent SPS 4 autosampler (Agilent Technologies, Tokyo, Japan) and a MicroMist nebulizer. The Agilent MassHunter software package (Workstation Software, Version C.01.04, 2018) was used for data evaluation. The ICP-MS operation parameters are given in Table S1. ^† Salicylic acid was extracted and detected as described above.

CT26 (murine) = assay: MTT assay, 72 h, CT26; type: cell-based; conditions: 72 h treatment, mean ± SD
Protocol: as §1, §2

CT26 allografts [3] = assay: Anticancer activity i.v. in CT26-bearing mice; type: in vivo, Balb/c mice; conditions: i.v., 4-times over 2 weeks, doses equimolar to 9 mg kg^−1 oxaliplatin
Protocol: as §3
(§4) CT26 cells (5 × 10^5 cells in 50 μl serum-free medium) were injected s.c. into the right flank of female BALB/c mice. […] Asa was treated orally using 50 mg kg^−1 in 5% DMSO/0.9% NaCl. Every day, the animals were monitored for the overall health conditions. Additionally, tumor size was measured. In case of a decreased body weight of ∼20% or ulcerated tumors, animals were sacrificed by cervical dislocation and tumors as well as organs were collected.

HT-29 = assay: MTT assay, 72 h, HT-29; type: cell-based; conditions: for IC50: HT-29, MTT, 72 h treatment, mean ± SD
Protocol: as §1, §2

[4] = Preliminary oral tolerability experiments in tumor-free mice; type: in vivo; conditions: 52.8 mg kg^−1 p.o.
Excerpt: It is well known that COX-2 is involved in the paracrine signaling between immune cells, resulting in a pro-tumorigenic tumor microenvironment.[10,33] Consequently, we got interested in the impact of the Asa ligand on the anticancer activity of the drugs in vivo. Therefore, we chose immune-competent murine colon cancer CT26 allografts as test system, which were characterized by high COX-2 expression (Fig. S4 ^†). […] Thus, the experiment was stopped on day 19 due to a distinct drop in body weight in these animals. As Asa is clinically applied p.o., we tested the efficacy of OxAsaOAc and asplatin in an oral application setting. […] For the therapy experiment, the animals were treated with OxAsaOAc and asplatin for five subsequent days over two weeks. […] Consequently, we concluded that the drug doses reaching the tumor in these therapy settings were insufficient, which prompted us to aim for carrier systems with enhanced tumor-targeting properties.

Caco-2 = assay: MTT assay, 72 h, Caco-2; type: cell-based; conditions: Caco-2, MTT, 72 h treatment, mean ± SD
Protocol: as §1, §2

[5] = test system: colorectal cancer cell line panel; assay: MTT assays, 72 h, whole panel comparison; type: cell-based; conditions: in most cell lines of the panel
Protocol: All cell cultures were grown at 37 °C in a humidified atmosphere containing 5% CO2. HCT116, RKO and HT-29 cells were cultured in McCoy's 5A Modified Media (Sigma-Aldrich, St. Louis, MO, USA) supplemented with 10% heat-inactivated fetal calf serum (FCS, PAA, Linz, Austria) and 2 mM glutamine (Sigma-Aldrich, St. Louis, MO, USA). The murine (Balb/c) colon cancer cell model CT26 (purchased from American Type Culture Collection, Manassas, VA, USA) were cultured in DMEM/F12 supplemented with 10% fetal calf serum (FCS). SW480 and Caco-2 cells were cultured in MEME media supplemented with 10% and 20% FCS, respectively. All cell culture media and reagents were purchased from Sigma-Aldrich Austria. […]
Depending on their proliferation rate, cells were seeded at a density of 3500–5000 cells per well in 96-well microtiter plates and allowed to adhere overnight. […] Cell viability was determined using the 3-(4,5-dimethylthiazol-2-yl)-2,5-diphenyltetrazolium bromide (MTT) assay (EZ4U, Biomedia, Vienna, Austria) according to the manufacturer's recommendation. Depending on the metabolic capacity, the cell lines were incubated between one and three hours at 37 °C and subsequently absorbance was measured at 450 nm (620 nm as a reference) with a Tecan Reader infinite® M200Pro (Tecan Group Ltd, Switzerland). Data were analyzed using Graph Pad prism (version 8.0.1) by using the point-to-point function. […]

[6] = Reduction kinetics with 10 eq. ascorbic acid (UHPLC); type: physicochemical; conditions: 1 mM, 250 mM phosphate buffer pH 7.4, 20 °C, 10 eq. ascorbic acid
Protocol: (§5) Phosphate buffer (250 mM, pH 7.4) containing 1 mM platinum compound was incubated at 20 °C, with and without the addition of 10 eq. L-ascorbic acid. […] A gradient of 5–95% over 5 minutes was used. To evaluate the current state of the reaction, the peak area of the parental complex was used.

HCT116 = assay: MTT assay, 72 h, HCT116; type: cell-based; conditions: 72 h treatment, mean ± SD
Protocol: as §1, §2

SW480 = assay: MTT assay, 72 h, SW480; type: cell-based; conditions: 72 h treatment, mean ± SD
Protocol: as §1, §2

[7] = Stability in aqueous buffer pH 7.4 (HPLC); type: physicochemical; conditions: 1 mM, 250 mM phosphate buffer pH 7.4, 20 °C, 25 h, HPLC
Protocol: as §5

RKO = assay: MTT assay, 72 h, RKO; type: cell-based; conditions: 72 h treatment, mean ± SD
Protocol: as §1, §2

CT26 allografts [8] = test system: CT26 allografts; design: method as in not given; conditions: reported MTD; ref not given; cited from earlier work
CT26 allografts [9] = type: in vivo; conditions: oxaliplatin 9 mg kg^−1 i.v.
Protocol: as §3, §4

T1 sequence (P02769 25-607): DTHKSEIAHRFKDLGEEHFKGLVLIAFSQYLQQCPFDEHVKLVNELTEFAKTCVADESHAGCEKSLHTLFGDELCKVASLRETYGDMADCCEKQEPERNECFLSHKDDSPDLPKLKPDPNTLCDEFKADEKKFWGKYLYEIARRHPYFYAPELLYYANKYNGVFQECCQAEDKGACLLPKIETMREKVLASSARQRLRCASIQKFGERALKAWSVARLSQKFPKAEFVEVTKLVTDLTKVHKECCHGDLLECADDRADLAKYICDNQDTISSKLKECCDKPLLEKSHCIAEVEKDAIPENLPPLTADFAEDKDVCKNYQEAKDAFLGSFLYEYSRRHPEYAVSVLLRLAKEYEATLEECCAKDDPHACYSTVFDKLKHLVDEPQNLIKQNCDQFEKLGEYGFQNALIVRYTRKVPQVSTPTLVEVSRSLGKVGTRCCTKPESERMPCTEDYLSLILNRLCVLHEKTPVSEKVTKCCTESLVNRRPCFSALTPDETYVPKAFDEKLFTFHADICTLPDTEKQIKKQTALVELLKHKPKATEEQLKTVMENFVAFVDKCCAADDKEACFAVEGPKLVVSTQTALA

Compound: CC(=O)Oc1ccccc1C(=O)[O][Pt-2]12([O]C(C)=O)([NH2+][C@@H]3CCCC[C@H]3[NH2+]1)[O]C(=O)C(=O)[O]2 [OxAsaOAc, (OC-6-44)-acetato(2-acetoxybenzoato)[(1R,2R)-1,2-cyclohexanediamino]oxalatoplatinum(IV)]
- Binding to albumin (or any other protein) (albumin): < 5%
- IC50 (HCT116/OxR): 42.8 ± 4.3 µM
- Impact on tumor growth (CT26 allografts [1]): none of the drugs had any impact on tumor growth
- Free salicylic acid in serum, share of administered dose ([2]; 10 min after single i.v. dose equimolar to 9 mg kg^−1 oxaliplatin): < 5 mol%
- Free salicylic acid in serum, share of administered dose ([2]; 1 h after single i.v. dose equimolar to 9 mg kg^−1 oxaliplatin): < 5 mol%
- Salicylic acid level in serum ([2]; 24 h after single i.v. dose equimolar to 9 mg kg^−1 oxaliplatin, below LOD): < 3 µM
- IC50 (CT26 (murine)): 12.8 ± 0.8 µM
- Tolerability (body weight) (CT26 allografts [3]): well tolerated
- Anticancer activity (tumor growth, overall survival) (CT26 allografts [3]; CT26): significant impact on both tumor growth as well as overall survival
- Fold higher activity than Ox(OAc)2 (HT-29; HT29 cells): 4 fold
- IC50 (HT-29): 32.7 ± 5.5 µM
- Tolerability [4]: well tolerable
- IC50 (Caco-2): 17.9 ± 2.1 µM
- Fold more active than Ox(OAc)2 [5]: about 2 fold
- Intact complex after 6 h ([6]; 6 h): 92%
- Intact complex after 24 h ([6]; 24 h): 53%
- IC50 (HCT116): 9.9 ± 1.5 µM
- IC50 (SW480): 11.2 ± 1.3 µM
- Stability in aqueous solution [7]: high stability
- IC50 (RKO): 4.3 ± 0.4 µM

Compound: O=C1[O][Pt]2([NH][C@@H]3CCCC[C@H]3[NH]2)[O]C1=O [Oxaliplatin, oxaliplatin]
- IC50 (HCT116/OxR): 27.8 ± 5.2 µM
- MTD (CT26 allografts [8]): 9 mg/kg
- Response of tumor model (tumor growth) (CT26 allografts [9]): responsiveness
- IC50 (CT26 (murine)): 1.8 ± 0.2 µM
- IC50 (HT-29): 5.3 ± 1.2 µM
- IC50 (HCT116): 0.8 ± 0.1 µM
- IC50 (SW480): 1 ± 0.2 µM
- IC50 (RKO): 0.4 ± 0.04 µM
